Reference: patent US20230234948A1, “CYCLOPROPYL DIHYDROQUINOLINE SULFONAMIDE COMPOUNDS” (AMGEN INC., priority 2020, published 2023)

biological target: T1, Human NaV1.7 (Homo sapiens, UniProt Q15858); test: Ionworks Barracuda (IWB) automated patch clamp assay; assay type: cell-based; conditions: human NaV1.7 in HEK cells, population patch-clamp, state- and use-dependent voltage protocol; read-out: hNaV1.7 IWB-U IC50
T1 construct: expressed in transfected cells; host or cells: Spiking HEK cells (without Kir2.1 transfection)
Procedure: Ionworks Barracuda (IWB) Automated Patch Clamp Assay (Same Protocol for Both Human and Mouse)
Human NaV1.7 currents were recorded in population patch-clamp mode with the IWB automated electrophysiology system (Molecular Devices, LLC, Sunnyvale, Calif.). Spiking HEK cells (without Kir2.1 transfection) were cultured and prepared for recordings as previously described for IonWorks Quattro testing^1. The external solution consisted of the following (in mM): NaCl 140, KCl 5, CaCl2 2, MgCl2 1, HEPES 10, and glucose 11, pH 7.4, with N-methyl-D-glucamine at 320 mOsmol. […] From a holding potential of −110 mV, currents were elicited by a train of 26 depolarizations of 150 ms duration to −20 mV at a frequency of 5 Hz. Cells were then clamped to −20 mV for a period of 4 minutes in the presence of a single concentration of test compound. Following this compound incubation period, cells were clamped to −110 mV for three seconds to recover unbound channels and put through the same 26 pulse voltage protocol as above. Peak inward current during the 26th pulse to −20 mV in the presence of compound was divided by the peak inward current evoked by the 26th pulse to −20 mV in the absence of compound to determine percent inhibition. Concentration-response curves of percent inhibition as a function of concentration were generated to calculate IC50 values as described in Kornecook, T. J.; Yin, R.; Altmann, S.; et al. Pharmacologic Characterization of AMG8379, a Potent and Selective Small Molecule Sulfonamide Antagonist of the Voltage-Gated Sodium Channel NaV1. 7.
The potency of the compounds of the present invention were evaluated on human NaV1.7 channels using the above described IonWorks Barracuda automated electrophysiology platform that evaluates the ability of compounds to block sodium conductance through NaV1.7 channels. A voltage-protocol that prosecutes both state-dependent as well as use-dependent inhibition was used as these modes of action are thought to be more relevant for the native state of NaV1.7 channels in pain sensing neurons in vivo.

T1 sequence (Q15858 whole entry): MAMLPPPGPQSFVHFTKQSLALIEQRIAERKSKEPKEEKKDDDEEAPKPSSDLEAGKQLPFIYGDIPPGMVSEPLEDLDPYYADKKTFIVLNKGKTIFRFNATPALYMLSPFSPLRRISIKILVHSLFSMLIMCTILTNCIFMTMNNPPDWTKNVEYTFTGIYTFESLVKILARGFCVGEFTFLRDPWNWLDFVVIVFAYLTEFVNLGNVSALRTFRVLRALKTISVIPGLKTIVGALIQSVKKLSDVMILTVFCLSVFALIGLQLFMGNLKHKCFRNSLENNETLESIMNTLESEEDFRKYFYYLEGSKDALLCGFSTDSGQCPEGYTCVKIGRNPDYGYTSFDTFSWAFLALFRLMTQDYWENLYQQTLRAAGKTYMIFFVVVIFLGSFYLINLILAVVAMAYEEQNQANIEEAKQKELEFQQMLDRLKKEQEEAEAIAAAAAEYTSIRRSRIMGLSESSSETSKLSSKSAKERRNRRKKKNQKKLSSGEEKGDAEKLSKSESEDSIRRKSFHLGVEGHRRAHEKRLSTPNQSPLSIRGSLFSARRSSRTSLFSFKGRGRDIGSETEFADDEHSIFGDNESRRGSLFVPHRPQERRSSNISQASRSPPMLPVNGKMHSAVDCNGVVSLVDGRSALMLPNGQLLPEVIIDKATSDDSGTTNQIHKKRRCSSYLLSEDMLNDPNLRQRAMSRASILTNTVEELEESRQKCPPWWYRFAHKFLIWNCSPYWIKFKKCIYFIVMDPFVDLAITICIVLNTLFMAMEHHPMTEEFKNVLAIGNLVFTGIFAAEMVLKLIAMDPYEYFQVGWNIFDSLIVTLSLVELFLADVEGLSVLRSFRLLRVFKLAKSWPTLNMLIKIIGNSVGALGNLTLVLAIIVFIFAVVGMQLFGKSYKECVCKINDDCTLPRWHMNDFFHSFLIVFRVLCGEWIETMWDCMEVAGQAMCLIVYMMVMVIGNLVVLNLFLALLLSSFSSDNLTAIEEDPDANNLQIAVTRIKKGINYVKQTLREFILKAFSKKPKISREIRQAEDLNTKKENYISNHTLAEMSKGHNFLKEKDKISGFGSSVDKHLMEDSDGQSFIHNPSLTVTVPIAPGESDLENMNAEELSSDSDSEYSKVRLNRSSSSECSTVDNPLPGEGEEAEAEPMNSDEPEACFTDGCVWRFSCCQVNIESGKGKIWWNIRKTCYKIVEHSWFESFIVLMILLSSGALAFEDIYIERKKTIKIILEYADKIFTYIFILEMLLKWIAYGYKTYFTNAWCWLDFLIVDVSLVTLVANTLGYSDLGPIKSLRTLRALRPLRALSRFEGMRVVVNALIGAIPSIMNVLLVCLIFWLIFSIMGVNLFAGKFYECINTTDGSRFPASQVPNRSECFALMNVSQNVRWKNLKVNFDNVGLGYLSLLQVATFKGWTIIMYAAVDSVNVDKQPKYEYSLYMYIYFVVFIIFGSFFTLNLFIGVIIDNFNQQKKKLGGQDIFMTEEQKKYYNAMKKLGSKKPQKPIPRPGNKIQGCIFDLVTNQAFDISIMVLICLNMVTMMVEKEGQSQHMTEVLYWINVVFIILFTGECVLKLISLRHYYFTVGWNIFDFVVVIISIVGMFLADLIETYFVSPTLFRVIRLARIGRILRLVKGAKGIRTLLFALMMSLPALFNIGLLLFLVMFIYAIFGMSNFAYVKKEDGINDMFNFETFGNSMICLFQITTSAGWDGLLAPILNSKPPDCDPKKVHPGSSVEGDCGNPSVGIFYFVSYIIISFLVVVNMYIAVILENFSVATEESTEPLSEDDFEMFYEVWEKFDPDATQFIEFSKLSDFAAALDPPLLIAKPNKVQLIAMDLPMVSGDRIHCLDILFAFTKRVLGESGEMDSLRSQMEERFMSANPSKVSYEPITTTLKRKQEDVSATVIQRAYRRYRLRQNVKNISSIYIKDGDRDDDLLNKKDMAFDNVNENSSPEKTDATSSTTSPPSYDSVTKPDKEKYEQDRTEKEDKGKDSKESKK

Point of comparison: `COc1cc(C2(C(F)(F)F)CC2)c(F)cc1-n1c(=O)ccc2cc(S(=O)(=O)Nc3ccon3)ccc21` (single isomer, unassigned) [Example 43, (M)-1-(5-fluoro-2-methoxy-4-(1-(trifluoromethyl)cyclopropyl)phenyl)-N-(isoxazol-3-yl)-2-oxo-1,2-dihydroquinoline-6-sulfonamide], IC50 1630 nM. Against it:
- COc1cc([C@H]2C[C@@H]2C(F)(F)F)c(F)cc1-n1c(=O)ccc2cc(S(=O)(=O)Nc3ccon3)ccc21 (atropisomer, axis not shown; (P)) [Example 4, (P)-1-(5-fluoro-2-methoxy-4-((1S,2S)-2-(trifluoromethyl)cyclopropyl)phenyl)-N-(isoxazol-3-yl)-2-oxo-1,2-dihydroquinoline-6-sulfonamide] — 150-fold lower, 11 nM
- COc1cc([C@H]2C[C@@H]2C(F)(F)F)ccc1-n1c(=O)ccc2cc(S(=O)(=O)Nc3ccon3)c(F)cc21 (atropisomer, axis not shown; (P)) [Example 48, (P)-7-fluoro-N-(isoxazol-3-yl)-1-(2-methoxy-4-((1S,2S)-2-(trifluoromethyl)cyclopropyl)phenyl)-2-oxo-1,2-dihydroquinoline-6-sulfonamide] — 150-fold lower, 11 nM
- COc1cc([C@@H]2C[C@H]2C(F)(F)F)c(F)cc1-n1c(=O)ccc2cc(S(=O)(=O)Nc3cccnn3)ccc21 (atropisomer, axis not shown; (P)) [Example 16, (P)-1-(5-fluoro-2-methoxy-4-((1R,2R)-2-(trifluoromethyl)cyclopropyl)phenyl)-2-oxo-N-(pyridazin-3-yl)-1,2-dihydroquinoline-6-sulfonamide] — 86-fold lower, 19 nM
- COc1cc([C@@H]2C[C@H]2C(F)(F)F)c(F)cc1-n1c(=O)ccc2cc(S(=O)(=O)Nc3ccon3)ccc21 (racemic) [Example 3, trans-1-(5-fluoro-2-methoxy-4-(2-(trifluoromethyl)cyclopropyl)phenyl)-N-(isoxazol-3-yl)-2-oxo-1,2-dihydroquinoline-6-sulfonamide] — 71-fold lower, 23 nM
- COc1cc(C2(C(F)(F)F)CC2)c(F)cc1-n1c(=O)ccc2cc(S(=O)(=O)Nc3ccon3)ccc21 (single isomer, unassigned) [Example 22, (P)-1-(5-fluoro-2-methoxy-4-(1-(trifluoromethyl)cyclopropyl)phenyl)-N-(isoxazol-3-yl)-2-oxo-1,2-dihydroquinoline-6-sulfonamide] — 120-fold lower, 14 nM
- COc1cc([C@@H]2C[C@H]2C(F)(F)F)c(F)cc1-n1c(=O)ccc2cc(S(=O)(=O)Nc3ncccn3)ccc21 (atropisomer, axis not shown; (P)) [Example 20, (P)-1-(5-fluoro-2-methoxy-4-((1R,2R)-2-(trifluoromethyl)cyclopropyl)phenyl)-2-oxo-N-(pyrimidin-2-yl)-1,2-dihydroquinoline-6-sulfonamide] — 68-fold lower, 24 nM
- COc1cc([C@H]2C[C@@H]2C(F)(F)F)c(F)cc1-n1c(=O)ccc2cc(S(=O)(=O)Nc3ncccn3)ccc21 (atropisomer, axis not shown; (P)) [Example 21, (P)-1-(5-fluoro-2-methoxy-4-((1S,2S)-2-(trifluoromethyl)cyclopropyl)phenyl)-2-oxo-N-(pyrimidin-2-yl)-1,2-dihydroquinoline-6-sulfonamide] — 47-fold lower, 35 nM
- COc1cc(C2(C(F)(F)F)CC2)c(Cl)cc1-n1c(=O)ccc2cc(S(=O)(=O)Nc3ccon3)ccc21 (atropisomer, axis not shown; (P)) [Example 24, (P)-1-(5-chloro-2-methoxy-4-(1-(trifluoromethyl)cyclopropyl)phenyl)-N-(isoxazol-3-yl)-2-oxo-1,2-dihydroquinoline-6-sulfonamide] — 270-fold lower, 6 nM
- COc1cc(C2(C(F)(F)F)CC2)c(F)cc1-n1c(=O)ccc2cc(S(=O)(=O)Nc3ccon3)ccc21 (single isomer, unassigned) [Example 42, (P)-1-(5-fluoro-2-methoxy-4-(1-(trifluoromethyl)cyclopropyl)phenyl)-N-(isoxazol-3-yl)-2-oxo-1,2-dihydroquinoline-6-sulfonamide] — 82-fold lower, 20 nM
- COc1cc([C@@H]2C[C@H]2C(F)(F)F)c(Cl)cc1-n1c(=O)ccc2cc(S(=O)(=O)Nc3ncccn3)ccc21 (atropisomer, axis not shown; (P)) [Example 13, (P)-1-(5-chloro-2-methoxy-4-((1R,2R)-2-(trifluoromethyl)cyclopropyl)phenyl)-2-oxo-N-(pyrimidin-2-yl)-1,2-dihydroquinoline-6-sulfonamide] — 140-fold lower, 12 nM
- COc1cc([C@H]2C[C@@H]2C(F)(F)F)c(Cl)cc1-n1c(=O)ccc2cc(S(=O)(=O)Nc3cccnn3)ccc21 (single isomer, unassigned) [Example 15] — 120-fold lower, 14 nM
- COc1cc([C@@H]2C[C@H]2C(F)(F)F)c(F)cc1-n1c(=O)ccc2cc(S(=O)(=O)Nc3ncns3)ccc21 (atropisomer, axis not shown; (P)) [Example 34, (P)-1-(5-fluoro-2-methoxy-4-((1R,2R)-2-(trifluoromethyl)cyclopropyl)phenyl)-2-oxo-N-(1,2,4-thiadiazol-5-yl)-1,2-dihydroquinoline-6-sulfonamide] — 330-fold lower, 5 nM
- COc1cc([C@H]2C[C@@H]2C(F)(F)F)c(C)cc1-n1c(=O)ccc2cc(S(=O)(=O)Nc3ncccn3)ccc21 (atropisomer, axis not shown; (P)) [Example 29, (P)-1-(2-methoxy-5-methyl-4-((1S,2S)-2-(trifluoromethyl)cyclopropyl)phenyl)-2-oxo-N-(pyrimidin-2-yl)-1,2-dihydroquinoline-6-sulfonamide] — 51-fold lower, 32 nM
- COc1cc([C@@H]2C[C@H]2C(F)(F)F)c(F)cc1-n1c(=O)ccc2cc(S(=O)(=O)Nc3ncco3)ccc21 (atropisomer, axis not shown; (P)) [Example 35, (P)-1-(5-fluoro-2-methoxy-4-((1R,2R)-2-(trifluoromethyl)cyclopropyl)phenyl)-N-(oxazol-2-yl)-2-oxo-1,2-dihydroquinoline-6-sulfonamide] — 150-fold lower, 11 nM
- COc1cc([C@@H]2C[C@H]2C(F)(F)F)c(C)cc1-n1c(=O)ccc2cc(S(=O)(=O)Nc3ncccn3)ccc21 (atropisomer, axis not shown; (P)) [Example 28, (P)-1-(2-methoxy-5-methyl-4-((1R,2R)-2-(trifluoromethyl)cyclopropyl)phenyl)-2-oxo-N-(pyrimidin-2-yl)-1,2-dihydroquinoline-6-sulfonamide] — 39-fold lower, 42 nM
- COc1cc([C@@H]2C[C@H]2C(F)(F)F)c(Cl)cc1-n1c(=O)ccc2cc(S(=O)(=O)Nc3ccon3)ccc21 (atropisomer, axis not shown; (P)) [Example 18, (P)-1-(5-chloro-2-methoxy-4-((1R,2R)-2-(trifluoromethyl)cyclopropyl)phenyl)-N-(isoxazol-3-yl)-2-oxo-1,2-dihydroquinoline-6-sulfonamide] — 230-fold lower, 7 nM
- COc1cc([C@H]2C[C@@H]2C(F)(F)F)c(F)cc1-n1c(=O)ccc2cc(S(=O)(=O)Nc3ncco3)ccc21 (atropisomer, axis not shown; (P)) [Example 36, (P)-1-(5-fluoro-2-methoxy-4-((1S,2S)-2-(trifluoromethyl)cyclopropyl)phenyl)-N-(oxazol-2-yl)-2-oxo-1,2-dihydroquinoline-6-sulfonamide] — 270-fold lower, 6 nM
- COc1cc(C2(C(F)(F)F)CC2)c(F)cc1-n1c(=O)ccc2cc(S(=O)(=O)Nc3ncccn3)ccc21 (atropisomer, axis not shown; (P)) [Example 23, (P)-1-(5-fluoro-2-methoxy-4-(1-(trifluoromethyl)cyclopropyl)phenyl)-2-oxo-N-(pyrimidin-2-yl)-1,2-dihydroquinoline-6-sulfonamide] — 100-fold lower, 16 nM
- COc1cc([C@H]2C[C@@H]2C(F)(F)F)c(Cl)cc1-n1c(=O)ccc2cc(S(=O)(=O)Nc3ccon3)ccc21 (atropisomer, axis not shown; (P)) [Example 19, (P)-1-(5-chloro-2-methoxy-4-((1S,2S)-2-(trifluoromethyl)cyclopropyl)phenyl)-N-(isoxazol-3-yl)-2-oxo-1,2-dihydroquinoline-6-sulfonamide] — 270-fold lower, 6 nM
- COc1cc(C2(C(F)(F)F)CC2)c(Cl)cc1-n1c(=O)ccc2cc(S(=O)(=O)Nc3ncccn3)ccc21 (atropisomer, axis not shown; (P)) [Example 25, (P)-1-(5-chloro-2-methoxy-4-(1-(trifluoromethyl)cyclopropyl)phenyl)-2-oxo-N-(pyrimidin-2-yl)-1,2-dihydroquinoline-6-sulfonamide] — 74-fold lower, 22 nM
- COc1cc([C@H]2C[C@@H]2C(F)(F)F)c(C#N)cc1-n1c(=O)ccc2cc(S(=O)(=O)Nc3ccon3)ccc21 (atropisomer, axis not shown; (P)) [Example 37, (P)-1-(5-cyano-2-methoxy-4-((1S,2S)-2-(trifluoromethyl)cyclopropyl)phenyl)-N-(isoxazol-3-yl)-2-oxo-1,2-dihydroquinoline-6-sulfonamide] — 230-fold lower, 7 nM
